{
  "source": "ChEMBL document CHEMBL1122157",
  "about": "(J Med Chem, 1982)",
  "note": "pIC50: −log10 of the molar value.",
  "data": [
    {"molecular_target": "T1, Dihydrofolate reductase (Gallus gallus, UniProt P00378)", "T1 sequence (P00378 whole entry)": "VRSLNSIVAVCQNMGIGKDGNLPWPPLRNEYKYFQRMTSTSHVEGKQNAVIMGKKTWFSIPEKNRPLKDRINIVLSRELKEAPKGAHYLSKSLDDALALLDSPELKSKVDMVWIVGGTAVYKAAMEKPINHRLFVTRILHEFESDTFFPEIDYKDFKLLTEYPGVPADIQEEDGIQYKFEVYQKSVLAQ", "assay": "Evaluated for the inhibition of chicken liver Dihydrofolate reductase by using standard enzyme assay", "conditions": "read-out: I50", "values": [
      {"smiles": "CN(Cc1cnc2nc(N)nc(N)c2n1)c1ccc(C(=O)NC(CCCCNC(=O)OCc2ccccc2)C(=O)O)cc1", "note": "(stereo unspecified)", "pIC50": 6.42},
      {"smiles": "CN(Cc1cnc2nc(N)nc(N)c2n1)c1ccc(C(=O)NC(CCCNC(=O)OCc2ccccc2)C(=O)OC(C)(C)C)cc1", "note": "(stereo unspecified)", "pIC50": 5.51},
      {"smiles": "CN(Cc1cnc2nc(N)nc(N)c2n1)c1ccc(C(=O)NC(CCCCNC(=O)OCc2ccccc2)C(=O)OC(C)(C)C)cc1", "note": "(stereo unspecified)", "pIC50": 6.02},
      {"smiles": "CN(Cc1cnc2nc(N)nc(N)c2n1)c1ccc(C(=O)NC(CCCNC(=O)OCc2ccccc2)C(=O)O)cc1", "note": "(stereo unspecified)", "pIC50": 6.48},
      {"smiles": "CN(Cc1cnc2nc(N)nc(N)c2n1)c1ccc(C(=O)NC(CCCN)C(=O)O)cc1", "note": "(stereo unspecified)", "pIC50": 6.60},
      {"smiles": "CN(Cc1cnc2nc(N)nc(N)c2n1)c1ccc(C(=O)NC(CCCCN)C(=O)O)cc1", "note": "(stereo unspecified)", "pIC50": 6.89}
    ]}
  ]
}
